From US20260285850A1, “SUBSTITUTED OXAZOLIDINONES AND IMIDAZOLINONES AS HERBICIDES” (FMC CORPORATION, priority 2023, published 2026)

Experiments:
Assay type in all cases: in vivo
[1] = test system: barnyardgrass (Echinochloa crus-galli); assay: Test A preemergence soil spray, visual injury rating 0-100; conditions: 10 days
Summary of the method: (§1)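 Plants were grown in a loam soil-sand blend and treated with test chemical in a non-phytotoxic solvent mixture containing surfactant, either sprayed on soil preemergence or applied postemergence to 2-10 cm plants. After 10 days in a greenhouse, injury was scored visually against untreated controls, 0 meaning no effect and 100 complete control.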

[2] = test system: blackgrass (Alopecurus myosuroides); assay: as above; conditions: 10 days
Summary of the method: as §1

corn (Zea mays) [3] = assay: as above; conditions: 10 days
Summary of the method: as §1

[4] = test system: green foxtail (Setaria viridis); assay: as above; conditions: 10 days
Summary of the method: as §1

kochia (Bassia scoparia) [5] = assay: as above; conditions: 10 days
Summary of the method: as §1

[6] = test system: oat, wild (wild oat, Avena fatua); assay: as above; conditions: 10 days
Summary of the method: as §1

[7] = test system: palmer (palmer amaranth, palmer pigweed, Amaranthus palmeri); assay: as above; conditions: 10 days
Summary of the method: as §1

[8] = test system: ragweed (common ragweed, Ambrosia artemisiifolia); assay: as above; conditions: 10 days
Summary of the method: as §1

[9] = test system: ryegrass, Italian (italian ryegrass, Lolium multiflorum); assay: as above; conditions: 10 days
Summary of the method: as §1

soybean (Glycine max) [10] = assay: as above; conditions: 10 days
Summary of the method: as §1

[11] = test system: wheat (Triticum aestivum); assay: as above; conditions: 10 days
Summary of the method: as §1

[12] = test system: barnyardgrass (Echinochloa crus-galli); assay: Test A postemergence application, visual injury rating 0-100
Summary of the method: as §1

[13] = test system: blackgrass (Alopecurus myosuroides); assay: as above
Summary of the method: as §1

corn (Zea mays) [14] = assay: as above
Summary of the method: as §1

[15] = test system: galium (catchweed bedstraw, Galium aparine); assay: as above; conditions: Postemergence, 16 g ai/ha, greenhouse 10 days; 0 no effect, 100 complete control
Summary of the method: as §1

[16] = test system: green foxtail (Setaria viridis); assay: as above
Summary of the method: as §1

[17] = test system: horseweed (Erigeron canadensis); assay: as above
Summary of the method: as §1

kochia (Bassia scoparia) [18] = assay: as above
Summary of the method: as §1

[19] = test system: oat, wild (wild oat, Avena fatua); assay: as above
Summary of the method: as §1

[20] = test system: palmer (palmer amaranth, palmer pigweed, Amaranthus palmeri); assay: as above
Summary of the method: as §1

[21] = test system: ragweed (common ragweed, Ambrosia artemisiifolia); assay: as above
Summary of the method: as §1

[22] = test system: ryegrass, Italian (italian ryegrass, Lolium multiflorum); assay: as above
Summary of the method: as §1

soybean (Glycine max) [23] = assay: as above
Summary of the method: as §1

[24] = test system: wheat (Triticum aestivum); assay: as above
Summary of the method: as §1

[25] = test system: barnyardgrass (Echinochloa crusgalli); assay: Test B flooded paddy test, visual plant response rating 0-100; conditions: 250 g ai/ha, Flood, applied to paddy water, evaluated after 13 days
Summary of the method: (§2)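 In this flooded assay, 2-leaf seedlings received compound through the water layer, kept at 3 cm over the soil. Plants were held 13 days in a greenhouse and then visually compared with control pots.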

[26] = test system: ducksalad (Heteranthera limosa); assay: as above; conditions: 250 g ai/ha, Flood, applied to paddy water, evaluated after 13 days
Summary of the method: as §2

rice (Oryza sativa) = assay: as above; conditions: 250 g ai/ha, Flood, applied to paddy water, evaluated after 13 days
Summary of the method: as §2

[27] = test system: sedge, umbrella (small-flower umbrella sedge, Cyperus difformis); assay: as above; conditions: 250 g ai/ha, Flood, applied to paddy water, evaluated after 13 days
Summary of the method: as §2

[28] = 62 g ai/ha, 0 = no effect, 100 = complete control
[29] = 62 g ai/ha, postemergence, 10 days, 0 = no effect, 100 = complete control
[30] = Postemergence, 16 g ai/ha, greenhouse 10 days, 0 no effect, 100 complete control

COC(=O)C1=CCC(NC(=O)C2(C)CN(c3cc(Cl)cc(Cl)c3)C(=O)O2)C1 (stereo not drawn) [Compound 149]
30: Corn plant response rating (0-100) (corn (Zea mays) [3]; [28]) | Foxtail, Green plant response rating ([4]; 16 g ai/ha, 0 to 100 scale) | Ragweed plant response rating (0-100) [8, 28] | Oat, Wild plant response rating (0 to 100 scale) [19, 30]
0: Blackgrass plant response rating ([2]; 16 g ai/ha, 0 to 100 scale) | Blackgrass plant response rating (0-100) [2, 28] | Corn plant response rating (corn (Zea mays) [3]; 16 g ai/ha, 0 to 100 scale) | Kochia plant response rating (kochia (Bassia scoparia) [5]; 16 g ai/ha, 0 to 100 scale) | Oat, Wild plant response rating ([6]; 16 g ai/ha, 0 to 100 scale) | Ragweed plant response rating ([8]; 16 g ai/ha, 0 to 100 scale) | Soybean plant response rating (soybean (Glycine max) [10]; 16 g ai/ha, 0 to 100 scale) | Soybean plant response rating (0-100) (soybean (Glycine max) [10]; [28])
95: Plant response rating, Barnyardgrass (0 to 100 scale, 0 is no effect and 100 is complete control) [25] | Plant response rating, Ducksalad (0 to 100 scale, 0 is no effect and 100 is complete control) [26] | Plant response rating, Sedge, Umbrella (0 to 100 scale, 0 is no effect and 100 is complete control) [27]
90: Barnyardgrass plant response rating (0-100) [1, 28] | Foxtail, Green plant response rating (0-100) [4, 28] | Pigweed, Palmer plant response rating ([7]; 16 g ai/ha, 0 to 100 scale) | Blackgrass plant response rating (0-100) [13, 29] | Blackgrass plant response rating (0 to 100 scale) [13, 30] | Foxtail, Green plant response rating (0-100) [16, 29] | Foxtail, Green plant response rating (0 to 100 scale) [16, 30] | Kochia plant response rating (0-100) (kochia (Bassia scoparia) [18]; [29]) | Oat, Wild plant response rating (0-100) [19, 29] | Pigweed, Palmer plant response rating (0-100) [20, 29] | Pigweed, Palmer plant response rating (0 to 100 scale) [20, 30] | Soybean plant response rating (0-100) (soybean (Glycine max) [23]; [29]) | Wheat plant response rating (0-100) [24, 29] | Plant response rating, Rice (0 to 100 scale, 0 is no effect and 100 is complete control) (rice (Oryza sativa))
100: Pigweed, Palmer plant response rating (0-100) [7, 28] | Barnyardgrass plant response rating (0-100) [12, 29] | Barnyardgrass plant response rating (0 to 100 scale) [12, 30] | Corn plant response rating (0-100) (corn (Zea mays) [14]; [29]) | Corn plant response rating (0 to 100 scale) (corn (Zea mays) [14]; [30])
70: Wheat plant response rating (0-100) [11, 28] | Horseweed plant response rating (0-100) [17, 29]
80: Ryegrass, Italian plant response rating (0-100) [9, 28] | Kochia plant response rating (0 to 100 scale) (kochia (Bassia scoparia) [18]; [30]) | Ryegrass, Italian plant response rating (0-100) [22, 29] | Ryegrass, Italian plant response rating (0 to 100 scale) [22, 30] | Wheat plant response rating (0 to 100 scale) [24, 30]
50: Kochia plant response rating (0-100) (kochia (Bassia scoparia) [5]; [28]) | Horseweed plant response rating (0 to 100 scale) [17, 30] | Ragweed plant response rating (0-100) [21, 29]
20: Oat, Wild plant response rating (0-100) [6, 28] | Ryegrass, Italian plant response rating ([9]; 16 g ai/ha, 0 to 100 scale) | Wheat plant response rating ([11]; 16 g ai/ha, 0 to 100 scale) | Ragweed plant response rating (0 to 100 scale) [21, 30]
60: Barnyardgrass plant response rating ([1]; 16 g ai/ha, 0 to 100 scale) | Galium plant response rating (0 to 100 scale) [15] | Soybean plant response rating (0 to 100 scale) (soybean (Glycine max) [23]; [30])
